Measurements from patent publication US8778985B2, “Inhibiting amyloid-beta peptide/rage interaction at the blood-brain barrier” (The University of Rochester, priority 2006, dated 2014).

Key:
APPsw+/− mice [1] = assay: Memory testing: novel object location and novel object recognition, chronic treatment of APPsw+/− mice; format: in vivo; conditions: 1 mg/kg per day i.p. for two months from 8 months of age
Description: (A) Percent increase in cerebral blood flow (CBF) in response to brain activation in mice treated with vehicle (open bar) or FPS2 (closed bar). (B-C) novel object location (B) and novel object recognition (C) expressed as percent exploratory preference in APPsw^+/− mice treated with vehicle (open bar) or FPS2 (closed bar). FPS2 (1 mg/kg per day) was intraperitoneally administered for two months beginning at the age of 8 months old mice. Values are means±s.e.m, n=5-6 per group.
(§1) APPsw^+/− mice were treated with FPS2 (1 mg/kg) or with vehicle daily by intraperitoneal injection for two months starting at 8 months old. At the end of the treatment period functional changes in cerebral blood flow (CBF) to brain activation, and memory tests were determined. Brain and plasma Aβ levels were also determined in FPS2 and vehicle treated mice. […]
(§2) Compounds were synthesized in parallel using semiautomated chemical reactions. […] Purity was assessed by reverse-phase gradient HPLC. […] After two months of treatment, (i) the cerebral blood flow response to brain activation (whisker stimulation) was measured and (ii) behavioral tests including operant learning, novel object location (NOL), and novel object recognition (NOR) were performed. After these functional tests, the mice were sacrificed and their brains analyzed for Aβ40, Aβ42, and amyloid levels. • CBF response to brain activation. […]

APPsw+/− mice [2] = assay: Resting CBF by laser-doppler flowmetry, acute FPS2 treatment of APPsw+/− mice; format: in vivo; conditions: 1 mg/kg intravenous bolus, 7-9 months old mice
Description: Cerebral blood flow changes expressed as a percentage of baseline recorded over a 90 min period in mice administered FPS2 (filled triangle) or vehicle (filled square). FPS2 (1 mg/kg) was administered intravenously (arrow) as a bolus in 7-9 months old mice. Values are means±s.e.m, n=3 per group.
as §1
as §2, with “activation. The CBF response to vibrissal stimulation in anesthetized APPsw^+/− mice was measured by using laser-doppler flowmetry (Transonic Systems, BLF 21 D).” for “activation.”

In the case of `CC(CC(=O)NCCCN(C(=O)c1cc([N+](=O)[O-])cc([N+](=O)[O-])c1)c1ccccc1)CC(C)(C)C` (stereo not shown) [FPS2, 3,5-dinitro-N-phenyl-N-[3-[(3,5,5-trimethyl-1-oxohexyl)amino]propyl]-(9Cl)-benzamide], the “memory, novel object location” value (APPsw+/− mice [1]) is reported as “significantly increased”, the “memory, novel object recognition” value (APPsw+/− mice [1]) is reported as “significantly increased” and the “time of peak of resting CBF increase” value (APPsw+/− mice [2]) is reported as 25 to 30 min. For the same compound, the “transient increase of resting CBF” value (APPsw+/− mice [2]) was “about 35%”.
